Data reported in US8362050B2, “Compounds and methods for modulating G protein-coupled receptors” (IRM LLC, priority 2008, dated 2013).
Where two headings read alike, the source gives them in different places.

Target: T1, Human GPR120 (Homo sapiens, UniProt Q5NUL3)
T1 construct: Ga16 (promiscuous G protein) fusion partner; expressed in transfected cells
T1 sequence (Q5NUL3 with tags, fused parts or gaps): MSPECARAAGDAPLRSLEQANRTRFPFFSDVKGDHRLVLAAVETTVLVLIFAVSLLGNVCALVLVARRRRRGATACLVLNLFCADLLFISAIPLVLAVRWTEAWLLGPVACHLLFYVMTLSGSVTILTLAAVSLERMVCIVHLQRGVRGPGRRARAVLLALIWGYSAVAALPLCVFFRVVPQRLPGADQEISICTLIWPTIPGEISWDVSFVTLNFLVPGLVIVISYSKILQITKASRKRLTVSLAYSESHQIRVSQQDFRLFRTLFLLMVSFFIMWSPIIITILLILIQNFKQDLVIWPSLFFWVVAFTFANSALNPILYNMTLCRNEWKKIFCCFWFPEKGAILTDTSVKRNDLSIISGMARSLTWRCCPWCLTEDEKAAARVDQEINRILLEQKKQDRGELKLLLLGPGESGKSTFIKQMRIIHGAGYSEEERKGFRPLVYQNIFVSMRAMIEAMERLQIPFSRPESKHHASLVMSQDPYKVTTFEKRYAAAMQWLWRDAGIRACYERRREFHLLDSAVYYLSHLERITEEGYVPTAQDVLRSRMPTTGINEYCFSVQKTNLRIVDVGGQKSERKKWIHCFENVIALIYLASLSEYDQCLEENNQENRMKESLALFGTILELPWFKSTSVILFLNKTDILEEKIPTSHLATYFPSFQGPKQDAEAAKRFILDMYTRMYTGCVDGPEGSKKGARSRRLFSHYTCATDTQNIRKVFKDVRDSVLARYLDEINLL
Assay: FLIPR assay: agonist-induced calcium mobilization in HEK293-GPR120-Ga16 cells
Type: cell-based
Details: for EC50: GPR120 activation, calcium mobilization, HEK293-GPR120-Ga16 cells; for Emax: % enhancement of the test compound relative to a known compound, read-out: % Efficiency
Method: Human GPR120 stable cell-line was generated in HEK293 cells. GPR120 (Accession number BC101175) is fused to a promiscuous G protein, Ga16. The expression plasmid is transfected into HEK293 cells using Fugene6 following manufacturer's instruction. Stable cell-lines are generated following drug selection.
FLIPR (Fluorimetric Imaging Plate Reader, Molecular Devices) assays are performed to measure agonist-induced calcium mobilization in the GPR120-expressing cells. One day before the FLIPR assay, HEK293-GPR120-Ga16 cells are seeded into poly-D-lysine coated black-wall-clear bottom 384 well plates (Falcon) at 25,000 cells per well in 40 μl DMEM supplemented with 1% of FBS. The cells are incubated overnight at 37° C. in a humidified incubator. The medium is aspirated on the day of the FLIPR assay. The cells are incubated with 50 μl/well of the assay buffer (HBSS, 20 mM HEPES, 2.5 mM probenecid, pH7.4) containing Fluo-4 NM dye (Invitrogen cat# F36205) at 37° C. for 45 minutes, and then equilibrated at room temperature for 30 minutes. Compounds are dissolved in DMSO and diluted to desired concentrations with assay buffer. Fluorescent output is measured immediately following compound addition (12.5 μl/well) on the FLIPR machine.
An EC50 value was calculated using the change of fluorescent intensity from the reaction initiation. […] In some examples, compounds provided herein have EC50 values from 0.1 μM to 5 μM, while in other examples from 0.5 μM to 5 μM.
The EC50 value in those experiments is given as that concentration of the test compound in question that provoke a response halfway between the baseline and maximum responses. In certain examples compounds of Formula (I) have EC50 values from 0.001 μM to 5 μM. In other examples, compounds of Formula (I) have EC50 values from 0.001 μM to 4 μM. In other examples, compounds of Formula (I) have EC50 values from 0.001 μM to 3 μM. In other examples, compounds of Formula (I) have EC50 values from 0.001 μM to 2 μM. In other examples, compounds of Formula (I) have EC50 values from 0.001 μM to 1 μM. In other examples, compounds of Formula (I) have EC50 values from 0.001 μM to 0.5 μM. […] In other examples, compounds of Formula (I) have EC50 values from 0.001 μM to 0.1 μM.
The % efficiency in those experiments is given as that % enhancement of the test compound in question relative to a known compound. In certain examples compounds of Formula (I) have a % efficiency values from 50% to 150%. In other examples, compounds of Formula (I) have a % efficiency values from 55% to 150%. In other examples, compounds of Formula (I) have a % efficiency values from 60% to 150%. In other examples, compounds of Formula (I) have a % efficiency values from 65% to 150%. In other examples, compounds of Formula (I) have a % efficiency values from 70% to 150%. In other examples, compounds of Formula (I) have a % efficiency values from 75% to 150%. In other examples, compounds of Formula (I) have a % efficiency values from 80% to 150%. In other examples, compounds of Formula (I) have a % efficiency values from 85% to 150%. In other examples, compounds of Formula (I) have a % efficiency values from 90% to 150%. In other examples, compounds of Formula (I) have a % efficiency values from 95% to 150%. In other examples, compounds of Formula (I) have a % efficiency values from 100% to 150%.

Row | EC50 (read-out: EC50 Range) [nM] | Emax [%] | EC50 (read-out: EC50) [nM] | SMILES
1 | 500 to 1000 |  |  | CCn1c(-c2cccc(OCc3ccccc3)c2)cs/c1=N\c1ccc(C(=O)O)cc1 [Compound 26, (Z)-4-(4-(3-(benzyloxy)phenyl)-3-ethylthiazol-2(3H)-ylideneamino)benzoic acid]
2 | 500 to 1000 | 65.9 | 700 | CCn1c(-c2cccc(OCc3ccccn3)c2)cs/c1=N\c1ccc(C(=O)O)cc1 [Compound 27, (Z)-4-(3-ethyl-4-(3-(pyridin-2-ylmethoxy)phenyl)thiazol-2(3H)-ylideneamino)benzoic acid]
3 | 100 to 250 |  |  | CCn1c(-c2ccccc2OC)cs/c1=N\c1ccc(S(=O)(=O)O)cc1 [Compound 28, (Z)-4-(3-ethyl-4-(2-methoxyphenyl)thiazol-2(3H)-ylideneamino)benzenesulfonic acid]
4 | 250 to 500 |  |  | CCn1c(-c2cccc(OC)c2)cs/c1=N\c1ccc(S(=O)(=O)O)cc1 [Compound 29, (Z)-4-(3-ethyl-4-(3-methoxyphenyl)thiazol-2(3H)-ylideneamino)benzenesulfonic acid]
5 | 100 to 250 |  |  | CCn1c(-c2ccccc2Cl)cs/c1=N\c1ccc(S(=O)(=O)O)cc1 [Compound 30, (Z)-4-(4-(2-chlorophenyl)-3-ethylthiazol-2(3H)-ylideneamino)benzenesulfonic acid]
6 | 1 to 100 | 114 | 78 | CCn1c(-c2cccc(Cl)c2)cs/c1=N\c1ccc(S(=O)(=O)O)cc1 [Compound 31, (Z)-4-(4-(3-chlorophenyl)-3-ethylthiazol-2(3H)-ylideneamino)benzenesulfonic acid]
7 | 500 to 1000 |  |  | CCn1c(-c2ccccc2OC)cs/c1=N\c1ccc(C(=O)O)cc1 [Compound 32, (Z)-4-(3-ethyl-4-(2-methoxyphenyl)thiazol-2(3H)-ylideneamino)benzoic acid]
8 | 500 to 1000 |  |  | CCn1c(-c2cccc(OC)c2)cs/c1=N\c1ccc(C(=O)O)cc1 [Compound 33, (Z)-4-(3-ethyl-4-(3-methoxyphenyl)thiazol-2(3H)-ylideneamino)benzoic acid]
9 | 100 to 250 |  |  | CCn1c(-c2ccccc2Cl)cs/c1=N\c1ccc(C(=O)O)cc1 [Compound 34, (Z)-4-(4-(2-chlorophenyl)-3-ethylthiazol-2(3H)-ylideneamino)benzoic acid]
10 | 100 to 250 |  |  | CCn1c(-c2cccc(Cl)c2)cs/c1=N\c1ccc(C(=O)O)cc1 [Compound 35, (Z)-4-(4-(3-chlorophenyl)-3-ethylthiazol-2(3H)-ylideneamino)benzoic acid]
11 | 250 to 500 |  |  | CCn1c(-c2ccccc2)cs/c1=N\c1ccc(C(=O)O)cc1 [Compound 36, (Z)-4-(3-ethyl-4-phenylthiazol-2(3H)-ylideneamino)benzoic acid]
12 | 100 to 250 |  |  | CCn1c(-c2ccccc2)cs/c1=N\c1ccc(S(=O)(=O)O)cc1 [Compound 37, (Z)-4-(3-ethyl-4-phenylthiazol-2(3H)-ylideneamino)benzenesulfonic acid]
13 | 100 to 250 |  |  | CCn1c(-c2c(Cl)cccc2Cl)cs/c1=N\c1ccc(C(=O)O)cc1 [Compound 38, (Z)-4-(4-(2,6-dichlorophenyl)-3-ethylthiazol-2(3H)-ylideneamino)benzoic acid]
14 | 100 to 250 |  |  | CCn1c(-c2cccc(Cl)c2Cl)cs/c1=N\c1ccc(C(=O)O)cc1 [Compound 39, (Z)-4-(4-(2,3-dichlorophenyl)-3-ethylthiazol-2(3H)-ylideneamino)benzoic acid]
15 | 250 to 500 | 107 | 354 | CCn1c(-c2cccc3ccccc23)cs/c1=N\c1ccc(C(=O)O)cc1 [Compound 40, (Z)-4-(3-ethyl-4-(naphthalen-1-yl)thiazol-2(3H)-ylideneamino)benzoic acid]
16 | 250 to 500 |  |  | CCn1c(-c2ccc3ccccc3c2)cs/c1=N\c1ccc(C(=O)O)cc1 [Compound 41, (Z)-4-(3-ethyl-4-(naphthalen-2-yl)thiazol-2(3H)-ylideneamino)benzoic acid]
17 | 1 to 100 |  |  | CCn1c(-c2ccccc2Br)cs/c1=N\c1ccc(C(=O)O)cc1 [Compound 42, (Z)-4-(4-(2-bromophenyl)-3-ethylthiazol-2(3H)-ylideneamino)benzoic acid]
18 | 1 to 100 |  |  | CCn1c(-c2ccccc2N)cs/c1=N\c1ccc(C(=O)O)cc1 [Compound 43, (Z)-4-(4-(2-aminophenyl)-3-ethylthiazol-2(3H)-ylideneamino)benzoic acid]
19 | 500 to 1000 | 75.2 | 604 | CCn1c(-c2ccccc2[N+](=O)[O-])cs/c1=N\c1ccc(C(=O)O)cc1 [Compound 44, (Z)-4-(3-ethyl-4-(2-nitrophenyl)thiazol-2(3H)-ylideneamino)benzoic acid]
20 | 500 to 1000 | 87.9 | 526 | CCn1c(-c2ccccc2NC)cs/c1=N\c1ccc(C(=O)O)cc1 [Compound 45, (Z)-4-(3-ethyl-4-(2-(methylamino)phenyl)thiazol-2(3H)-ylideneamino)benzoic acid]
21 | 500 to 1000 |  |  | CCn1c(-c2ccccc2N(C)C)cs/c1=N\c1ccc(C(=O)O)cc1 [Compound 46, (Z)-4-(4-(2-(dimethylamino)phenyl)-3-ethylthiazol-2(3H)-ylideneamino)benzoic acid]
22 | 100 to 250 |  |  | CCn1c(-c2cccc(Br)c2)cs/c1=N\c1ccc(C(=O)O)cc1 [Compound 47, (Z)-4-(4-(3-bromophenyl)-3-ethylthiazol-2(3H)-ylideneamino)benzoic acid]
23 | 100 to 250 |  |  | CCn1c(-c2ccccc2O)cs/c1=N\c1ccc(C(=O)O)cc1 [Compound 48, (Z)-4-(3-ethyl-4-(2-hydroxyphenyl)thiazol-2(3H)-ylideneamino)benzoic acid]
24 | 250 to 500 |  |  | CCn1c(-c2cccc(C#N)c2)cs/c1=N\c1ccc(C(=O)O)cc1 [Compound 49, (Z)-4-(4-(3-cyanophenyl)-3-ethylthiazol-2(3H)-ylideneamino)benzoic acid]
25 | 100 to 250 |  |  | CCn1c(-c2cc(Br)ccc2O)cs/c1=N\c1ccc(C(=O)O)cc1 [Compound 50, (Z)-4-(4-(5-bromo-2-hydroxyphenyl)-3-ethylthiazol-2(3H)-ylideneamino)benzoic acid]
26 | 100 to 250 | 55 | 184 | COc1ccc(-c2noc(-c3cccc(C(=O)O)c3)n2)cc1 [Compound 51, 3-[3-(4-Methoxyphenyl)-1,2,4-oxadiazol-5-yl]benzoic acid]
27 | 1000 to 5000 |  |  | COc1ccc(-c2noc(-c3ccc(C(=O)O)cc3)n2)cc1 [Compound 52, 4-(3-(4-methoxyphenyl)-1,2,4-oxadiazol-5-yl)benzoic acid]
